Consider twelve compounds from patent publication US5100916A, “Carbamic acid ester for treatment of addiction to alcohol” (Bio-Tox Diagnostics Kommanditbolag, priority 1988, dated 1992).

Data set [1] addresses T1, aldehyde dehydrogenase (low Km) (Rattus norvegicus, UniProt P11884).
T1 construct: The aldehyde dehydrogenase activity in the homogenate after incubation for 1 h; from tissue; host or cells: rat liver homogenate
T1 sequence (P11884 20-519): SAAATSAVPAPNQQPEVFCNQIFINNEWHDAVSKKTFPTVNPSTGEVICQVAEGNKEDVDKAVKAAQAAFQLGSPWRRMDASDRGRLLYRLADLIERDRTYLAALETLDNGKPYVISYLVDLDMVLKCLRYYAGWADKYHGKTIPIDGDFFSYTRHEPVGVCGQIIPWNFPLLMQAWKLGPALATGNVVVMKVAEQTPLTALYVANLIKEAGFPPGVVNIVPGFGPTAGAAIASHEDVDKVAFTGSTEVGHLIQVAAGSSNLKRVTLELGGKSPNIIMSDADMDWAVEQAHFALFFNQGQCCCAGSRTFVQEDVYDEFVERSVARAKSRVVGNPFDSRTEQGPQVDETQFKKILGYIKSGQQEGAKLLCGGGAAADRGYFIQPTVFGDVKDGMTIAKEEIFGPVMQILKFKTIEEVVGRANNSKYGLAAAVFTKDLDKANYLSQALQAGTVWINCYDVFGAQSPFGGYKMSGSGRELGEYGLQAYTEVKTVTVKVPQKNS
Kind of data set: In vitro inhibition of aldehyde dehydrogenase of low Km, rat liver homogenate. In kind it is biochemical. The settings on record: 1 h incubation, 2760 μmol/liter, water ref. = 100, double determinations, 4 rats, read-out: Residual activity of aldehyde dehydrogenase (Low Km in % of ref. value). As to the method: (§1) METHOD FOR INHIBITING ALDEHYDE DEHYDROGENASE
(§2) Fractionation of rat liver homogenates was performed according to Tottmar et al, Biochem. J. 1973:135:577. The aldehyde dehydrogenase activity in the homogenate after incubation for 1 h with different thiocarbamic acid esters (see Table 1) was measured spectrophotometrically in 50 μl aliquots by following the reduction of NAD to NADH at 340 nm at 37° C. in the presence of the substrate acetaldehyde […], as described by Tottmar and Marcher (Acta Pharmacol. et Toxicol. 1976:38:366).
(§3) In vitro inhibition of aldehyde dehydrogenase of low Km
(§4) The values are X±SD of double determinations, on the one hand in homogenates from 4 rats and, on the other hand, in bovine liver (last two values in Table 1).
(§5) The concentration=2760 μmol/liter for all compounds, except the last two compounds for which the concentration was 3.0 mmol/liter.

The test system of data set [2] is aldehyde dehydrogenase (low Km). Description: In vitro inhibition of aldehyde dehydrogenase, measured on bovine liver. In kind it is biochemical. To be noted: 3.0 mmol/liter, water ref. = 100, double determinations, 60 min. As to the method:
as §1, §2, §3
*Measured on bovine liver
as §4, §5

Another data set relates to rats. Kind of data set: "Antabuse-alcohol" reaction on rats by tonometry (diastolic blood pressure after ethanol). In kind it is in vivo, rat. The settings on record: N = 3, salt water 92.5 ± 5.2. Here is the method:
Method of assessing the "Antabuse®-alcohol" reaction on rats by tonometry
These measurements were performed on a selected compound. The substance employed is diethyl thiocarbamic acid-S-methyl ester (referred to as DTSM hereinafter).
Male rats having a body weight of 300-400 g were anaesthetised with urethane 1.25 g/kg i.p. On a group of 4 rats, a catheter filled with heparin-salt water was inserted by operative surgery in one carotid artery, and the blood pressure was recorded before and after intraperitoneal injection of ethanol (1 g/kg, 10 ml/kg of 10% v/v ethanol in water). Two other groups of 3 rats each were treated intraperitoneally with DTSM for 1 and 2 hours, respectively, whereupon ethanol (1 g/kg, 10 ml/kg of 10% v/v ethanol in water) was injected intraperitoneally. The blood pressure was measured before the injection of ethanol and for 30 min. after injection, after which time the blood pressure has usually stabilized itself (Hellstrom and Tottmar: Pharmacology Biochemistry and Behaviour 1982:17:1103).

For the next data set, the system named is patients. To be noted: person takes disulfiram and then drinks alcohol; cited from earlier work.
The conditions of data set [3]: cited from earlier work.
For data set [4] the following is noted: cited from earlier work. This is another data set of the same source.
For data set [5], the system named is acetaldehyde dehydrogenase. The settings on record: cited from earlier work.

As to `CSC(=O)N1CCCC1`, in data set [1], the remaining activity at 2760 µM came to 9%.
In the case of `CSC(=O)N1CCCCC1`, the remaining activity at 2760 µM in data set [1] was determined as 16%.
The same measure, in the same setting: next, `CSC(=O)NCCc1ccc(O)cc1`: 10%; `CSC(=O)NCCc1ccccc1`: 0%; `CSC(=O)Nc1ccccc1`: 8%.
Turning to `CCCN(CCC)C(=O)SC`, in data set [1], the remaining activity at 2760 µM is 11%.
Regarding `COC(=O)N1CCCCC1` [1-piperidine carbamic acid-methyl ester], the “Residual activity of aldehyde dehydrogenase (Low Km in % of ref. value)” value in data set [2] is given as 76 % of ref. value.
Take `CCN(CC)C(=O)SC` [DTSM, diethyl thiocarbamic acid-S-methyl ester]: the “Diastolic blood pressure of rats 30 min. after ethanol injection, % of own ref. value (X ± SD)” value is given as 77.1 ± 3.6 % of own ref. value in the data set on rats (DTSM 30 mg/kg i.p. 1 hour before ethanol 1 g/kg i.p., p <0.01) and 57.6 ± 28 % of own ref. value in the data set with rats (DTSM 30 mg/kg i.p. 2 hours before ethanol 1 g/kg i.p., p <0.05). Besides, in data set [1], the remaining activity at 2760 µM is 73%.
As for `CCN(CC)C(=O)OC` [Diethyl carbamic acid-methyl ester], the “Residual activity of aldehyde dehydrogenase (Low Km in % of ref. value)” value in data set [2] is 87 % of ref. value.
For `CCSC(=O)N(CC)CC` [X = CH2 CH3, R = CH2 CH3, R1 = CH2 CH3, diethyl thiocarbamic acid-S-ethyl ester], the remaining activity at 2760 µM in data set [1] stood at 8%.
On the same count and under the same terms, next, `CSC(=O)N(C)C` [X = CH3, R = CH3, R1 = CH3, dimethyl thiocarbamic acid-S-methyl ester]: 16%.
Regarding `CCN(CC)C(=S)SSC(=S)N(CC)CC` [disulfiram], the disulfiram/alcohol reaction entry in the data set on patients was “nausea, a ruddy complexion, palpitation of the heart, low blood pressure, vomiting, and a pulsating headache”. Also, the solubility in water result in data set [3] was “very sparingly soluble in water”. Besides, in data set [4], the “t 1/2 of metabolism in blood” value is 4 min. Further, the “blocking of liver enzyme acetaldehyde dehydrogenase” value in data set [5] is recorded as “irreversible blocking”.
